From patent US12539269B2, “Composition for blocking ultraviolet rays and fine dust, and preparation method thereof” (SANG HWANG MI-IN CO., LTD, priority 2020, dated 2026)

System: HaCaT
Assay: Hyaluronic acid production amount (ELISA kit) in BP-stimulated keratinocytes
Type: cell-based
Description: In order to confirm whether the extract of a black hoof mushroom, a shiitake mushroom, and an oyster mushroom increased the hyaluronic acid (HA) production amount in HaCaT which is a keratinocyte, measurement was performed with an ELISA kit, and the results are shown in Table 7. In Table 7, N (normal) is a BP (benzo[α]pyrene)-unstimulated group, and C (control) is a BP (benzo[α]pyrene)-stimulated group.

O=C(O[C@@H]1Cc2c(O)cc(O)cc2O[C@@H]1c1cc(O)c(O)c(O)c1)c1cc(O)c(O)c(O)c1 [EGCG]
Increase of hyaluronic acid production versus control group (increase rate) (10 μg/mL, versus control C 99.3 ng/mL): 6.3 ng/mL
Hyaluronic acid production amount (BP (benzo[α]pyrene)-stimulated, EGCG 10 μg/mL, N 198, C 99.3): 105.6 ng/mL
